Assay results: patent publication US20110009421A1, “COMPOUND HAVING 6-MEMBERED AROMATIC RING” (TAKEDA PHARMACEUTICAL COMPANY LIMITED, priority 2008, published 2011)
Counter-ions that a name gives are not always drawn.

These compounds were tested against T1, human GPR52 (Homo sapiens, UniProt Q9Y2T5) (assay: Increased intracellular cAMP levels in human GPR52 expression CHO cells (AlphaScreen cAMP assay)). Conditions: 1 μM test compound, 30 min at 37° C., human GPR52 expression CHO (dhfr−) cells; intracellular cAMP level, 100% = 1 μM 3-(6-(2-(3,4-dimethoxyphenyl)ethoxy)pyridin-2-yl)-N-(2-pyrrolidin-1-ylethyl)benzamide, 0% = DMSO.
T1 construct: expressed in transfected cells; host or cells: CHO (dhfr-) cells
T1 sequence (Q9Y2T5 whole entry): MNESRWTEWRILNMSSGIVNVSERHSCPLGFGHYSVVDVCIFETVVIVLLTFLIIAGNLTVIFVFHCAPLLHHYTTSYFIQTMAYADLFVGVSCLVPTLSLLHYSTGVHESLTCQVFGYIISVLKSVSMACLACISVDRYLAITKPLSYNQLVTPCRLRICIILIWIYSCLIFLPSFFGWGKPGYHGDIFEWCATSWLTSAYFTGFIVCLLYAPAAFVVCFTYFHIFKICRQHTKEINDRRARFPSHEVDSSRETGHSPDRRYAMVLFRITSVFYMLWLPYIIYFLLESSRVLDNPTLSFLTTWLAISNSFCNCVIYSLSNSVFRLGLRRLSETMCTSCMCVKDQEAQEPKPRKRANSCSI
Type: cell-based
Experimental: Increased Intracellular cAMP Levels in Human GPR52 Expression CHO Cells
1×10^4 human GPR52 expression CHO (dhfr−) cells were incubated with 1 μM test compound for 30 min at 37° C. in 30 μL assay buffer (HBSS (containing Ca^2+ and Mg^2+), 0.5% BSA, 100 μM IBMX, 100 μM Ro 20-1724, 5 mM HEPES (pH 7.55)) using an OptiPlate-384 (by PerkinElmer). The intracellular cAMP level was then assayed with an EnVision (by PerkinElmer) according to the protocol of the AlphaScreen cAMP Assay Kit (by PerkinElmer). The GPR52 agonist activity was calculated, assuming the intracellular cAMP level to be 100% in the presence of 1 μM of 3-(6-(2-(3,4-dimethoxyphenyl)ethoxy)pyridin-2-yl)-N-(2-pyrrolidin-1-ylethyl)benzamide obtained in Reference Example 39 and assuming the intracellular cAMP level to be 0% when DMSO was added instead of test compound.

Row | GPR52 agonist activity (%) | SMILES
1 | 107 | O=C(NCCN1CCCC1)c1cccc(-c2ccnc(NCCc3ccc(F)c(Cl)c3)n2)c1 [Working Example 164]
2 | 43 | O=C(Nc1nccs1)c1cccc(-c2cccc(OCCc3cccc(F)c3)n2)c1 [Working Example 61, 3-(6-(2-(3-Fluorophenyl)ethoxy)pyridin-2-yl)-N-1,3-thiazol-2-ylbenzamide]
3 | 98 | COc1ccc(CCNc2nccc(-c3cccc(NC(=O)CCCN4CCCCC4)c3)n2)cc1OC [Working Example 31, N-(3-(2-(2-(3,4-Dimethoxy-phenyl)ethylamino)pyrimidin-4-yl)phenyl)-4-(piperidin-1-yl)butanamide]
4 | 68 | COc1ccc(CCOc2cncc(-c3cccc(C(=O)NCCN4CCCC4)c3)c2)cc1OC [Working Example 44, 3-(5-(2-(3,4-Dimethoxyphenyl)ethoxy)pyridin-3-yl)-N-(2-pyrrolidin-1-ylethyl)benzamide]
5 | 85 | COc1ccc(CCOc2ccnc(-c3cccc(C(=O)NCCN4CCCC4)c3)n2)cc1OC [Working Example 45, 3-(4-(2-(3,4-Dimethoxyphenyl)ethoxy)pyrimidin-2-yl)-N-(2-pyrrolidin-1-ylethyl)benzamide]
6 | 71 | COc1ccc(CCNc2nccc(-c3cccc(NC(=O)CC4CCCN4)c3)n2)cc1OC (stereo not drawn) [Working Example 25, N-(3-(2-((2-(3,4-Dimethoxyphenyl)ethyl)amino)pyrimidin-4-yl)phenyl)-2-pyrrolidin-2-yl acetamide hydrochloride]
7 | 110 | COc1ccc(CCOc2cccc(-c3cccc(C(=O)NCCC(N)=O)c3)n2)cc1OC [Working Example 175]
8 | 58 | C[C@H](CC#N)NC(=O)c1cccc(-c2cccc(Oc3cc(Cl)cc(Cl)c3)n2)c1 [Working Example 94, N-((1R)-2-Cyano-1-methylethyl)-3-(6-(3,5-dichlorophenoxy)pyridin-2-yl)benzamide]
9 | 99 | COc1ccc(CCOc2nccc(-c3cccc(C(=O)NCCN4CCCC4)c3)n2)cc1OC [Working Example 46, 3-(2-(2-(3,4-Dimethoxyphenyl)ethoxy)pyrimidin-4-yl)-N-(2-pyrrolidin-1-ylethyl)benzamide]
10 | 77 | N#CCCNC(=O)c1cc(-c2cccc(Oc3ccc(Cl)cc3Cl)n2)ccc1F [Working Example 113, N-(2-cyanoethyl)-5-(6-(2,4-dichlorophenoxy)pyridin-2-yl)-2-fluorobenzamide]
11 | 64 | O=C(NCCO)c1cccc(-c2cccc(OCCc3cccc(C(F)(F)F)c3)n2)c1 [Working Example 65, N-(2-hydroxyethyl)-3-(6-(2-(3-(trifluoromethyl)phenyl)ethoxy)pyridin-2-yl)benzamide]
12 | 97 | O=C(NCCN1CCCC1)c1cccc(-c2cccc(Oc3cccc(Cl)c3Cl)n2)c1 [Working Example 83, 3-(6-(2,3-Dichlorophenoxy)pyridin-2-yl)-N-(2-pyrrolidin-1-ylethyl)benzamide]
13 | 48 | COc1cccc(CCOc2cccc(-c3cccc(C(=O)NC4CCOCC4)c3)n2)c1 [Working Example 67, 3-(6-(2-(3-Methoxyphenyl)ethoxy)pyridin-2-yl)-N-(tetrahydro-2H-pyran-4-yl)benzamide]
14 | 79 | O=C(NCCO)c1cccc(-c2cccc(Oc3cc(Cl)cc(Cl)c3)n2)c1 [Working Example 87, 3-(6-(3,5-dichlorophenoxy)pyridin-2-yl)-N-(2-hydroxyethyl)benzamide]
15 | 109 | COc1cc(CCNc2nccc(-c3cccc(C(=O)NCCN4CCCC4)c3)n2)ccc1F [Working Example 166]
16 | 48 | N#CCCNC(=O)c1cccc(-c2cccc(Oc3cncc(Cl)c3)n2)c1 [Working Example 134, 3-(6-((5-Chloropyridin-3-yl)oxy)pyridin-2-yl)-N-(2-cyanoethyl)benzamide]
17 | 65 | COc1ccc(CCOc2cccc(-c3cccc(C(=O)Nc4ccc5ncccc5c4)c3)n2)cc1OC [Working Example 227]
18 | 113 | COc1ccc(CCNc2nccc(-c3cccc(C(=O)NCCN4CCCC4)c3)n2)cc1OC [Working Example 141]
19 | 89 | COc1ccc(CCNc2nccc(-n3ccc4cc(C(=O)NCCN(C)C)ccc43)n2)cc1OC [Working Example 102, 1-(2-((2-(3,4-Dimethoxyphenyl)ethyl)amino)pyrimidin-4-yl)-N-(2-(dimethylamino)ethyl)-1H-indole-5-carboxamide]
20 | 64 | O=C(NCCN1CCCC1)c1cccc(-c2cccc(Oc3ccc(Cl)c(Cl)c3)n2)c1 [Working Example 82, 3-(6-(3,4-Dichlorophenoxy)pyridin-2-yl)-N-(2-pyrrolidin-1-ylethyl)benzamide]

Row | GPR52 agonist activity (%) | SMILES
21 | 67 | COc1ccc(CCOc2cccc(-c3cccc(C(=O)NCCNc4ccccc4)c3)n2)cc1OC [Working Example 208]
22 | 94 | COc1ccc(CCOc2cccc(-c3cccc(C(=O)Nc4ccccn4)c3)n2)cc1OC [Working Example 219]
23 | 69 | COc1ccc(CCNc2nccc(-c3cccc(NC(C)=O)c3)n2)cc1OC [Working Example 1, N-(3-(2-(2-(3,4-dimethoxyphenyl)ethylamino)pyrimidin-4-yl)phenyl)acetamide]
24 | 80 | COc1ccc(CCNc2nccc(-c3cccc(NC(=O)C4CCNCC4)c3)n2)cc1OC [Working Example 22, N-(3-(2-((2-(3,4-dimethoxyphenyl)ethyl)amino)pyrimidin-4-yl)phenyl)piperidine-4-carboxamide hydrochloride]
25 | 68 | O=C(NCCN1CCCC1)c1cccc(-c2ccnc(NCCc3ccc(Cl)c(F)c3)n2)c1 [Working Example 165]
26 | 47 | COc1cccc(C(=O)Nc2cccc(-c3ccnc(NCCc4ccc(OC)c(OC)c4)n3)c2)c1 [Working Example 12, N-(3-(2-(2-(3,4-dimethoxyphenyl)ethylamino)pyrimidin-4-yl)phenyl)-3-methoxybenzamide]
27 | 104 | COc1ccccc1CCNc1nccc(-c2cccc(C(=O)NCCN3CCCC3)c2)n1 [Working Example 138]
28 | 65 | COc1cccc(CCOc2cccc(-c3cccc(C(=O)NCCO)c3)n2)c1 [Working Example 69, N-(2-hydroxyethyl)-3-(6-(2-(3-methoxyphenyl)ethoxy)pyridin-2-yl)benzamide]
29 | 51 | N#CCCNC(=O)c1cccc(-c2cccc(Oc3cc(Cl)cc(Cl)c3)n2)c1 [Working Example 121, N-(2-Cyanoethyl)-3-(6-(3,5-dichlorophenoxy)pyridin-2-yl)benzamide]
30 | 74 | COc1ccc(CCNc2nccc(-c3cccc(NC(=O)CC4CCCN4C)c3)n2)cc1OC (stereo not drawn) [Working Example 28, N-(3-(2-((2-(3,4-dimethoxyphenyl)ethyl)amino)pyrimidin-4-yl)phenyl)-2-(1-methylpyrrolidin-2-yl)acetamide hydrochloride]
31 | 52 | COc1cccc(CCOc2cccc(-c3cccc(C(=O)Nc4ccccn4)c3)n2)c1 [Working Example 76, 3-(6-(2-(3-Methoxyphenyl)ethoxy)pyridin-2-yl)-N-pyridin-2-ylbenzamide]
32 | 53 | O=C(NCCO)c1cccc(-c2cccc(Sc3ccc(Cl)cc3Cl)n2)c1 [Working Example 101, 3-(6-((2,4-dichlorophenyl)thio)pyridin-2-yl)-N-(2-hydroxyethyl)benzamide]
33 | 84 | Cc1cccc(CCOc2cccc(-c3cccc(C(=O)NCCO)c3)n2)c1 [Working Example 59, N-(2-Hydroxyethyl)-3-(6-(2-(3-methylphenyl)ethoxy)pyridin-2-yl)benzamide]
34 | 135 | O=C(NCCN1CCCC1)c1cccc(-c2ccnc(NCCc3cccc(C(F)(F)F)c3)n2)c1 [Working Example 146, N-(2-pyrrolidin-1-ylethyl)-3-[2-({2-[3-(trifluoromethyl)phenyl]ethyl}amino)pyrimidin-4-yl]benzamide]
35 | 56 | COc1ccc(CCOc2cccc(-c3cccc(C(=O)NC4CCOCC4)c3)n2)cc1OC [Working Example 41, 3-(6-(2-(3,4-Dimethoxyphenyl)ethoxy)pyridin-2-yl)-N-(tetrahydro-2H-pyran-4-yl)benzamide]
36 | 62 | O=C(NCCCO)c1cccc(-c2cccc(Oc3cc(Cl)cc(Cl)c3)n2)c1 [Working Example 88, 3-(6-(3,5-Dichlorophenoxy)pyridin-2-yl)-N-(3-hydroxypropyl)benzamide]
37 | 106 | COc1ccc(CCOc2cccc(-c3cccc(C(=O)NCCN4CCCC4)c3)n2)cc1OC [Working Example 39, 3-(6-(2-(3,4-dimethoxyphenyl)ethoxy)pyridin-2-yl)-N-(2-pyrrolidin-1-ylethyl)benzamide]
38 | 57 | COc1ccc(CCOc2cccc(-c3cccc(NC(=O)Cn4ccnc4)c3)n2)cc1OC [Working Example 302]
39 | 58 | COc1ccc(CCOc2cccc(-c3cccc(NC(=O)[C@@H]4CSC(=O)N4)c3)n2)cc1OC [Working Example 245]
